The mark [1] stands for this setting: compared with crystals of fluoxetine HCl.

We go through 2 compounds from patent US8350085B2, “Cocrystallization” (New Form Pharmaceuticals Inc., priority 2003, dated 2013).

Like-named read-outs stand apart in the source and are kept apart here.

On to `CNCCC(Oc1ccc(C(F)(F)F)cc1)c1ccccc1.Cl.O=C(O)c1ccccc1` (stereo not drawn) [fluoxetine HCl:benzoic acid, fluoxetine HCl:benzoic acid (1:1)], for which the dissolution rate entry is, setting by setting: (Example 1 cocrystal) “relatively slow”; under setting [1], “lower dissolution rate”.

As to `CNCCC(Oc1ccc(C(F)(F)F)cc1)c1ccccc1.Cl.O=C(O)CCC(=O)O` (stereo not drawn) [fluoxetine HCl:succinic acid, fluoxetine HCl:succinic acid (2:1)], the dissolution rate entry under setting [1] is “faster dissolution rate”.
